According to US4057636A, “Antihypertensive pyridylguanidine compounds” (Leo Pharmaceutical Products Ltd. A/S, priority 1974, dated 1977):

What was measured:
[1] = system: cats; assay: Hypotensive action in anaesthetized cats (ΔBP, ΔHR); format: in vivo, cat
Description: (§1) Hypotensive action and various cardiovascular and autonomic responses in cats.
(§2) Cats of both sexes anaestetized with pentobarbital […]. were used. The left carotid artery was exposed and cannulated with polyethylene cannula connected through a Statham pressure transducer to a Grass Polygraph Recorder. […] The compound was administered dissolved in dilute HCl in a volume of 0.4 ml. […] Both procedures are known to produce pressor effects. […]

[2] = system: vasopressor response to norepinephrine; assay: Reduction of vasopressor response to norepinephrine (NE) in cats; format: in vivo, cat; settings: 0.01 mg/kg i.v.; norepinephrine hydrochloride 1 meg/kg i.v.
Description: as §1, §2

[3] = system: conscious normotensive dogs; assay: Hypotensive activity in conscious normotensive dogs; format: in vivo, dog (mongrel); settings: 0.1 mg/kg oral
Description: Hypotensive activity in conscious normotensive dogs
Mongrel dogs of both sexes, fasting 16 hours before the experiment were used. […] The compounds were orally administered in gelatine capsules.

[4] = system: conscious spontaneously hypertensive rats; assay: Antihypertensive activity in conscious spontaneously hypertensive rats; format: in vivo, rat (spontaneously hypertensive Okamoto strain)
Description: Male albino rats, spontaneously hypertensive Okamoto strain, fasting 16 hours before the experiments were used. The conscious animals were restrained in a plastic cage and a cuff was secured around the tail. The cuff was connected with an electronic blood pressure recorder. The systolic blood pressure and the heart rate were measured before and 2, 4, 6, and 24 hours after the administration of compounds. The compounds were suspended or dissolved in carboxymethylcellulose 0.5%. […] There are also included, for comparison, the results obtained under the same experimental conditions with some known antihypertensive drugs, and the approximate oral LD50 in mice are stated.

[5] = system: common carotid artery occlusion pressor response; assay: Reduction of pressor response to common carotid artery occlusion (CO) in cats; format: in vivo, cat; settings: 0.01 mg/kg i.v.; carotid artery occlusion 45 secs
Description: as §1, §2

[6] = system: normotensive anaesthetized rats; assay: Hypotensive activity in normotensive anaesthetized rats; format: in vivo, rat (Sprague Dowley); settings: for Δ mean blood pressure: at time of peak effect
Description: Male albino Sprague Dowley strain rats were anaesthetized with pentobarbital and fastened to rat boards in a supine position. The left carotid artery was exposed and cannulated with polyethylene cannula connected through a Statham pressure transducer to a Grass Polygraph Recorder. […] The compound was dissolved in dilute HCl. […] Table 1 summarizes the effects on mean blood pressure at the time of peak effect.

[7] = system: nictitating membrane; assay: Reduction of contraction of nictitating membrane, pre- and postganglionic stimulation, in cats; format: in vivo, cat; settings: for Nict. Membr. post % reduction: postganglionic stimulation (3 V, 1 msec, 5 secs); for Nict. Membr. pre % reduction: preganglionic stimulation (3 V, 1 msec, 40 Hz, 5 secs)
Description: as §1, §2

[8] = system: blood pressure; settings: J. Med. Chem. Vol. 11, p. 811 (1968); cited from earlier work
[9] = 0.01 mg/kg i.v., line with NE/CO
[10] = 0.01 mg/kg i.v., line with nictitating membrane
[11] = 0.05 mg/kg i.v., line with nictitating membrane

CC(C)(C)NC(=NC#N)Nc1cccnc1 [P 1060, N-tert-Butyl-N"-cyano-N'-3-pyridylcuanidine]
ΔBP [1, 9]: 90 mm Hg | ΔHR [1, 9]: 20 beats/min. | ΔBP [1, 10]: 90 mm Hg | ΔHR [1, 10]: 35 beats/min. | ΔBP [1, 11]: 110 mm Hg | ΔHR [1, 11]: 30 beats/min. | NE % reduction [2]: 50% | BP ([3]; Dog I, 1 hour): 75 mm Hg | HR ([3]; Dog I, 1 hour): 152 beats/minute | UV ([3]; Dog I, 1 hour): 2.3 mL | BP ([3]; Dog I, 2 hours): 80 mm Hg | HR ([3]; Dog I, 2 hours): 180 beats/minute | UV ([3]; Dog I, 2 hours): 7.1 mL | BP ([3]; Dog I, 3 hours): 90 mm Hg | HR ([3]; Dog I, 3 hours): 152 beats/minute | UV ([3]; Dog I, 3 hours): 11 mL | BP ([3]; Dog I, 4 hours): 120 mm Hg | HR ([3]; Dog I, 4 hours): 140 beats/minute | UV ([3]; Dog I, 4 hours): 22 mL | BP ([3]; Dog II, 1 hour): 100 mm Hg | HR ([3]; Dog II, 1 hour): 112 beats/minute | UV ([3]; Dog II, 1 hour): 8 mL | BP ([3]; Dog II, 2 hours): 95 mm Hg | HR ([3]; Dog II, 2 hours): 128 beats/minute | UV ([3]; Dog II, 2 hours): 12.5 mL | BP ([3]; Dog II, 3 hours): 95 mm Hg | HR ([3]; Dog II, 3 hours): 104 beats/minute | UV ([3]; Dog II, 3 hours): 22.5 mL | BP ([3]; Dog II, 4 hours): 105 mm Hg | HR ([3]; Dog II, 4 hours): 100 beats/minute | UV ([3]; Dog II, 4 hours): 16 mL | BP ([3]; Dog III, 1 hour): 65 mm Hg | HR ([3]; Dog III, 1 hour): 172 beats/minute | UV ([3]; Dog III, 1 hour): 22 mL | BP ([3]; Dog III, 2 hours): 115 mm Hg | HR ([3]; Dog III, 2 hours): 104 beats/minute | UV ([3]; Dog III, 2 hours): 20 mL | BP ([3]; Dog III, 3 hours): 110 mm Hg | HR ([3]; Dog III, 3 hours): 92 beats/minute | UV ([3]; Dog III, 3 hours): 12 mL | BP ([3]; Dog III, 4 hours): 125 mm Hg | HR ([3]; Dog III, 4 hours): 88 beats/minute | UV ([3]; Dog III, 4 hours): 14 mL | BP ([4]; 0.01 mg/kg, 2 hours): 141 mm Hg | HR ([4]; 0.01 mg/kg, 2 hours): 419 beats/minute | BP ([4]; 0.01 mg/kg, 4 hours): 145 mm Hg | HR ([4]; 0.01 mg/kg, 4 hours): 423 beats/minute | BP ([4]; 0.01 mg/kg, 6 hours): 146 mm Hg | HR ([4]; 0.01 mg/kg, 6 hours): 428 beats/minute | BP ([4]; 0.01 mg/kg, 24 hours): 176 mm Hg | HR ([4]; 0.01 mg/kg, 24 hours): 402 beats/minute | BP ([4]; 0.05 mg/kg, 2 hours): 126 mm Hg | HR ([4]; 0.05 mg/kg, 2 hours): 422 beats/minute | BP ([4]; 0.05 mg/kg, 4 hours): 132 mm Hg | HR ([4]; 0.05 mg/kg, 4 hours): 420 beats/minute | BP ([4]; 0.05 mg/kg, 6 hours): 127 mm Hg | HR ([4]; 0.05 mg/kg, 6 hours): 410 beats/minute | BP ([4]; 0.05 mg/kg, 24 hours): 170 mm Hg | HR ([4]; 0.05 mg/kg, 24 hours): 386 beats/minute | BP ([4]; 0.1 mg/kg, 2 hours): 118 mm Hg | HR ([4]; 0.1 mg/kg, 2 hours): 420 beats/minute | BP ([4]; 0.1 mg/kg, 4 hours): < 100 mm Hg | HR ([4]; 0.1 mg/kg, 4 hours): 426 beats/minute | BP ([4]; 0.1 mg/kg, 6 hours): 114 mm Hg | HR ([4]; 0.1 mg/kg, 6 hours): 422 beats/minute | BP ([4]; 0.1 mg/kg, 24 hours): 170 mm Hg | HR ([4]; 0.1 mg/kg, 24 hours): 408 beats/minute | BP ([4]; 0.5 mg/kg, 2 hours): < 100 mm Hg | BP ([4]; 0.5 mg/kg, 4 hours): < 100 mm Hg | BP ([4]; 0.5 mg/kg, 6 hours): < 100 mm Hg | BP ([4]; 0.5 mg/kg, 24 hours): 153 mm Hg | HR ([4]; 0.5 mg/kg, 24 hours): 413 beats/minute | BP ([4]; 1.0 mg/kg, 2 hours): < 100 mm Hg | BP ([4]; 1.0 mg/kg, 4 hours): < 100 mm Hg | BP ([4]; 1.0 mg/kg, 6 hours): < 100 mm Hg | BP ([4]; 1.0 mg/kg, 24 hours): 126 mm Hg | HR ([4]; 1.0 mg/kg, 24 hours): 405 beats/minute | CO % reduction [5]: 100% | duration ([6]; 0.002 mg/kg i.v.): 3 min | Δ mean blood pressure ([6]; 0.002 mg/kg i.v.): -70 mm Hg | duration ([6]; 0.005 mg/kg i.v.): 12 min | Δ mean blood pressure ([6]; 0.005 mg/kg i.v.): -70 mm Hg | duration ([6]; 0.010 mg/kg i.v.): > 45 min | Δ mean blood pressure ([6]; 0.010 mg/kg i.v.): -85 mm Hg | Nict. Membr. post % reduction ([7]; 0.01 mg/kg i.v.): 12% | Nict. Membr. pre % reduction ([7]; 0.01 mg/kg i.v.): 20% | Nict. Membr. post % reduction ([7]; 0.05 mg/kg i.v.): 21% | Nict. Membr. pre % reduction ([7]; 0.05 mg/kg i.v.): 12%

CCC(C)(C)NC(=N)NC#N [Guancydine, N-cyano-N'-tert-pentylguanidine]
hypotensive effect (literature) [8]: the most potent of the compounds of the above-mentioned literature
